Measured values: patent US8299048B2, “Hexahydrocyclopentyl[f]indazole sulfonamides and derivatives thereof as selective glucocorticoid receptor modulators” (Merck Sharp & Dohme Corp., priority 2008, dated 2012)

These molecules were tested against T1, glucocorticoid receptor (Homo sapiens, UniProt P04150) (assay: Ligand binding assay (GR BIND)).
T1 construct: endogenous in cells
T1 sequence (P04150 1-777): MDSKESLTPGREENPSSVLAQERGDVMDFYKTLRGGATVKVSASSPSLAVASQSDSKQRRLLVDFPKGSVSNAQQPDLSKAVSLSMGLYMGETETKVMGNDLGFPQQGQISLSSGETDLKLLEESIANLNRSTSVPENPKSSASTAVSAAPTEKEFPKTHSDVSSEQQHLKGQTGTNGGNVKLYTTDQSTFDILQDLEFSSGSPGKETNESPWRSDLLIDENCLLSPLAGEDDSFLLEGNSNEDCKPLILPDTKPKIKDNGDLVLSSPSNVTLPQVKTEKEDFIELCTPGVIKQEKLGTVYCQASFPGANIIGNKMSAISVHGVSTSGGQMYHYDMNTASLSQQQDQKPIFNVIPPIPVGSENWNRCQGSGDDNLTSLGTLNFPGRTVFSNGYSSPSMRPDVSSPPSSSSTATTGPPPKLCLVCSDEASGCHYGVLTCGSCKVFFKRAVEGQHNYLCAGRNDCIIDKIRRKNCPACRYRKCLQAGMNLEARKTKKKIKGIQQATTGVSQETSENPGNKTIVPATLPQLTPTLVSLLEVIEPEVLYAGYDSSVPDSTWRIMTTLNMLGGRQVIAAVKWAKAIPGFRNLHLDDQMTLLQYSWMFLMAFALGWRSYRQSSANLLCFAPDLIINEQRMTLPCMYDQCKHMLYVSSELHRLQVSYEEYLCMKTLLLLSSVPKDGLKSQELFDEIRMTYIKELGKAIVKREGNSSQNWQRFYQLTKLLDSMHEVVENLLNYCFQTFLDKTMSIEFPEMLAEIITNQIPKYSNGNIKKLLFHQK
Description: • Materials: • Binding Buffer: TEGM (10 mM Tris-HCl, 1 mM EDTA, 10% glycerol, 1 mM beta-mecaptoethanol, 10 mM Sodium Molybdate, pH 7.2) • 50% HAP Slurry: Calbiochem Hydroxylapatite, Fast Flow, in 10 mM Tris, pH 8.0 and 1 mM EDTA. • Wash Buffer: 40 mM Tris, pH7.5, 100 mM KCl, 1 mM EDTA and 1 mM EGTA.
Phenol red-free Trypsin-EDTA is diluted in the same PBS1:10. The cell layers are rinsed with 1× Trypsin, extra Trypsin is poured out, and the cell layers are incubated at 37° C. for ˜2 min. The flask is tapped and checked for signs of cell detachment. Once the cells begin to slide off the flask, the complete media is added. The cells are counted at this point, then diluted to the appropriate concentration and split into flasks or dishes for further culturing (Usually 1:3 to 1:6 dilution).
When the cells are 70 to 85% confluent, they are detached as described above, and collected by centrifuging at 1000 g for 10 minutes at 4° C. The cell pellet is washed twice with TEGM (10 mM Tris-HCl, 1 mM EDTA, 10% glycerol, 1 mM beta-mercaptoethanol, 10 mM Sodium Molybdate, pH 7.2). After the final wash, the cells are resuspended in TEGM at a concentration of 10^7 cells/mL. The cell suspension is snap frozen in liquid nitrogen or ethanol/dry ice bath and transferred to −80° C. freezer on dry ice. Before setting up the binding assay, the frozen samples are left on ice-water to just thaw (˜1 hr). Then the samples are centrifuged at 12,500 g to 20,000 g for 30 min at 4° C. The supernatant is used to set-up assay right away. If using 50 μL of supernatant, the test compound can be prepared in 50 μL of the TEGM buffer.
1×TEGM buffer is prepared, and the isotope-containing assay mixture is prepared in the following order: EtOH (2% final concentration in reaction), 3H-DEX (Amersham Biosciences) and 1×TEGM. [e.g. For 100 samples, 200 μL (100×2) of EtOH+4.25 μL of 1:10 ^3H—Dex stock+2300 μL (100×23) 1×TEGM]. The compound is serially diluted, e.g., if starting final conc. is 1 μM, and the compound is in 25 μL of solution, for duplicate samples, 75 μL of 4×1 μM solution is made and 3 μL of 100 μM is added to 72 μL of buffer, and 1:5 serial dilution.
25 μL of ^3H-DEX (6 nM) trace and 25 μL compound solution are first mixed together, followed by addition of 50 μL receptor solution. The reaction is gently mixed, spun briefly at about 200 rpm and incubated at 4° C. overnight. 100 μL of 50% HAP slurry is prepared and added to the incubated reaction which is then vortexed and incubated on ice for 5 to 10 minutes. The reaction mixture is vortexed twice more to resuspend HAP while incubating reaction. The samples in 96-well format are then washed in wash buffer using The FilterMate™ Universal Harvester plate washer (Packard). The washing process transfers HAP pellet containing ligand-bound expressed receptor to Unifilter-96 GF/B filter plate (Packard). The HAP pellet on the filter plate is incubated with 50 μL of MICROSCINT (Packard) scintillint for 30 minutes before being counted on the TopCount microscintillation counter (Packard). […] are calculated using DEX as a reference.
Work on `C[C@]12Cc3cnn(-c4ccc(F)cc4)c3C=C1CC[C@@H]2CN(CCO)S(=O)(=O)c1ccccc1C(N)=O` [Example 117, 2-{[{[(4αR,5S)-1-(4-fluorophenyl)-4α-methyl-1,4,4α,5,6,7-hexahydrocyclopenta[f]indazol-5-yl]methyl}(2-hydroxyethyl)amino]sulfonyl}benzamide] yielded a Ki of 9.4 nM. `COCCN(C[C@H]1CCC2=Cc3c(cnn3-c3ccc(F)cc3)C[C@@]21C)S(=O)(=O)CCN1C(=O)c2ccccc2C1=O` [Example 118, 2-(1,3-dioxo-1,3-dihydro-2H-isoindol-2-yl)-N-{[(4αR,5S)-1-(4-fluorophenyl)-4α-methyl-1,4,4α,5,6,7-hexahydrocyclopenta[f]indazol-5-yl]methyl}-N-(2-methoxyethyl)ethanesulfonamide] showed a Ki of 3.8 nM. With `COc1ccccc1CCN(C[C@H]1CCC2=Cc3c(cnn3-c3ccc(F)cc3)C[C@@]21C)S(=O)(=O)Cc1cccc(C(F)(F)F)c1` [Example 119, N-{[(4αR,5S)-1-(4-fluorophenyl)-4α-methyl-1,4,4α,5,6,7-hexahydrocyclopenta[f]indazol-5-yl]methyl}-N-[2-(2-methoxyphenyl)ethyl]-1-[3-(trifluoromethyl)phenyl]methanesulfonamide] the Ki was 2.3 nM. Molecule `COc1ccccc1CCN(C[C@H]1CCC2=Cc3c(cnn3-c3ccc(F)cc3)C[C@@]21C)S(=O)(=O)CC(F)(F)F` [Example 120, 2,2,2-trifluoro-N-{[(4αR,5S)-1-(4-fluorophenyl)-4α-methyl-1,4,4α,5,6,7-hexahydrocyclopenta[f]indazol-5-yl]methyl}-N-[2-(2-methoxyphenyl)ethyl]ethanesulfonamide] has a Ki of 1.3 nM. For `C[C@]12Cc3cnn(-c4ccc(F)cc4)c3C=C1CC[C@@H]2CN(CCc1ccccc1F)S(=O)(=O)CCN1C(=O)c2ccccc2C1=O` [Example 121, 2-(1,3-dioxo-1,3-dihydro-2H-isoindol-2-yl)-N-[2-(2-fluorophenyl)ethyl]-N-{[(4αR,5S)-1-(4-fluorophenyl)-4α-methyl-1,4,4α,5,6,7-hexahydrocyclopenta[f]indazol-5-yl]methyl}ethanesulfonamide], the Ki was 5.3 nM. Molecule `C[C@]12Cc3cnn(-c4ccc(F)cc4)c3C=C1CC[C@@H]2CN(CCc1ccccc1O)S(=O)(=O)Cc1cccc(C(F)(F)F)c1` [Example 122, N-{[(4αR,5S)-1-(4-fluorophenyl)-4α-methyl-1,4,4α,5,6,7-hexahydrocyclopenta[f]indazol-5-yl]methyl}-N-[2-(2-hydroxyphenyl)ethyl]-1-[3-(trifluoromethyl)phenyl]methanesulfonamide] has a Ki of 2.9 nM. Molecule `Cc1noc(C)c1S(=O)(=O)N(CCc1ccccc1O)C[C@H]1CCC2=Cc3c(cnn3-c3ccc(F)cc3)C[C@@]21C` [Example 123, N-{[(4αR,5S)-1-(4-fluorophenyl)-4α-methyl-1,4,4α,5,6,7-hexahydrocyclopenta[f]indazol-5-yl]methyl}-N-[2-(2-hydroxyphenyl)ethyl]-3,5-dimethylisoxazole-4-sulfonamide] has a Ki of 0.9 nM. For `C[C@]12Cc3cnn(-c4ccc(F)cc4)c3C=C1CC[C@@H]2CN(CCc1ccccc1F)S(=O)(=O)Cc1cccnc1` [Example 124, N-[2-(2-fluorophenyl)ethyl]-N-{[(4αR,5S)-1-(4-fluorophenyl)-4α-methyl-1,4,4α,5,6,7-hexahydrocyclopenta[f]indazol-5-yl]methyl}-1-pyridin-3-ylmethanesulfonamide], the Ki was 0.7 nM. `COc1ccccc1CCN(C[C@H]1CCC2=Cc3c(cnn3-c3ccc(F)cc3)C[C@@]21C)S(=O)(=O)Cc1cccnc1` [Example 125, N-{[(4αR,5S)-1-(4-fluorophenyl)-4α-methyl-1,4,4α,5,6,7-hexahydrocyclopenta[f]indazol-5-yl]methyl}-N-[2-(2-methoxyphenyl)ethyl]-1-pyridin-3-ylmethanesulfonamide] showed a Ki of 1 nM. `COc1cccc(CCN(C[C@H]2CCC3=Cc4c(cnn4-c4ccc(F)cc4)C[C@@]32C)S(=O)(=O)CC(F)(F)F)c1` [Example 126, 2,2,2-trifluoro-N-{[(4αR,5S)-1-(4-fluorophenyl)-4α-methyl-1,4,4α,5,6,7-hexahydrocyclopenta[f]indazol-5-yl]methyl}-N-[2-(3-methoxyphenyl)ethyl]ethanesulfonamide] showed a Ki of 0.9 nM. Work on `COc1ccc(CCN(C[C@H]2CCC3=Cc4c(cnn4-c4ccc(F)cc4)C[C@@]32C)S(=O)(=O)CC(F)(F)F)cc1` [Example 127, 2,2,2-trifluoro-N-{[(4αR,5S)-1-(4-fluorophenyl)-4α-methyl-1,4,4α,5,6,7-hexahydrocyclopenta[f]indazol-5-yl]methyl}-N-[2-(4-methoxyphenyl)ethyl]ethanesulfonamide] yielded a Ki of 1.1 nM. `C[C@]12Cc3cnn(-c4ccc(F)cc4)c3C=C1CC[C@@H]2CN(CCc1ccccn1)S(=O)(=O)CC(F)(F)F` [Example 128, 2,2,2-trifluoro-N-{[(4αR,5S)-1-(4-fluorophenyl)-4α-methyl-1,4,4α,5,6,7-hexahydrocyclopenta[f]indazol-5-yl]methyl}-N-(2-pyridin-2-ylethyl)ethanesulfonamide] gave a Ki of 0.8 nM. `C[C@]12Cc3cnn(-c4ccc(F)cc4)c3C=C1CC[C@@H]2CN(CCc1ccncc1)S(=O)(=O)CC(F)(F)F` [Example 129, 2,2,2-trifluoro-N-{[(4αR,5S)-1-(4-fluorophenyl)-4α-methyl-1,4,4α,5,6,7-hexahydrocyclopenta[f]indazol-5-yl]methyl}-N-(2-pyridin-4-ylethyl)ethanesulfonamide] was tested, and the Ki was 1.9 nM. Work on `C[C@]12Cc3cnn(-c4ccc(F)cc4)c3C=C1CC[C@@H]2CN(CCc1ccc(O)cc1)S(=O)(=O)CC(F)(F)F` [Example 130, 2,2,2-trifluoro-N-{[(4αR,5S)-1-(4-fluorophenyl)-4α-methyl-1,4,4α,5,6,7-hexahydrocyclopenta[f]indazol-5-yl]methyl}-N-[2-(4-hydroxyphenyl)ethyl]ethanesulfonamide] yielded a Ki of 1.8 nM. `C[C@]12Cc3cnn(-c4ccc(F)cc4)c3C=C1CC[C@@H]2CN(CCc1ccccc1O)S(=O)(=O)Cc1cccnc1` [Example 131, N-{[(4αR,5S)-1-(4-fluorophenyl)-4α-methyl-1,4,4α,5,6,7-hexahydrocyclopenta[f]indazol-5-yl]methyl}-N-[2-(2-hydroxyphenyl)ethyl]-1-pyridin-3-ylmethanesulfonamide] gave a Ki of 1.7 nM. `C[C@]12Cc3cnn(-c4ccc(F)cc4)c3C=C1CC[C@@H]2CN(Cc1cccnn1)S(=O)(=O)CC(F)(F)F` [Example 132, 2,2,2-trifluoro-N-{[(4αR,5S)-1-(4-fluorophenyl)-4α-methyl-1,4,4α,5,6,7-hexahydrocyclopenta[f]indazol-5-yl]methyl}-N-(pyridazin-3-ylmethyl)ethanesulfonamide] showed a Ki of 5.5 nM.
